Experimental data reported in patent US11253497B2, “Use of derivatives of polyunsaturated fatty acids as medicaments” (Lipopharma Therapeutics, S.L., priority 2009, dated 2022).

Assays:
[1] = tested on: breast cancer cells MDA-MB-231; experiment: Growth of breast cancer cells MDA-MB-231; assay type: cell-based; conditions: 72 hours of incubation
Description: (§1) For the experiments shown in FIG. 1, cultured human Non Small Cell Lung Cancer cells (A549) in RPMI 1640 were used, supplemented with 10% foetal bovine serum and antibiotics, at 37° C. and 5% CO2. […] After treatment, cell count was performed and the study of the mechanisms involved in the antitumor activity of compounds was evaluated by flow cytometry. […] These values correspond to averages of three independent experiments.
(§2) These charts show the antitumor efficacy of the compounds of this invention against the growth of breast cancer cells, brain (glioma), and lung cancer. […] The other experimental conditions are identical to those described in the preceding paragraph.

[2] = tested on: brain cancer cell (glioma) U118; experiment: Brain cancer (glioma) U118 cell growth; assay type: cell-based; conditions: 72 hours of incubation
Description: For the experiments shown in FIG. 1, cultured human Non Small Cell Lung Cancer cells (A549) in RPMI 1640 were used, supplemented with 10% foetal bovine serum and antibiotics, at 37° C. and 5% CO2. Cells were maintained in culture for 48 hours in the presence or absence of D-PUFAs and PUFAs indicated in Table 2 at a concentration of 250 µM. After treatment, cell count was performed and the study of the mechanisms involved in the antitumor activity of compounds was evaluated by flow cytometry. […] These values correspond to averages of three independent experiments.
as §2

lung cancer cells A549 = experiment: Growth of lung cancer cells A549 (IC50); assay type: cell-based, human; conditions: 72 hours of incubation
Description: as §1, §2

[3] = Lamellar-to-hexagonal (HII) transition temperature in DEPE model membranes by Differential Scanning Calorimetry; assay type: physicochemical; conditions: DEPE membranes, DEPE:D-PUFA 10:1 (mol:mol)
Description: The transition temperature was determined by Differential Scanning Calorimetry. The proportion DEPE:D-PUFA was 10:1 (mol:mol) in all cases. Lamellar-to-hexagonal transition is an important parameter that reflects relevant signalling properties of cell membranes. […] When this occurs, certain peripheral membrane proteins (such as G proteins, protein kinase C or Ras protein) can more easily bind to the membrane, while others have a poor interaction (e.g., the Gα-protein), so changes in the HII transition temperature are important in regulating cellular functions related to health and human therapy (Escriba et al., 1995, Vogler et al., 2004; Escriba, 2006).
Control values correspond to model membranes in the absence of fatty acids. The reduction in HII transition temperature obtained by using the D-PUFA of the invention indicates an increased induction of membrane discontinuities, generating anchoring sites in the membrane for peripheral proteins and leads to better regulation of cell signalling and, therefore, greater effectiveness in the control of certain diseases.

SMILES | IC50 [1] [µM] | IC50 [2] [µM] | IC50 (lung cancer cells A549) [µM] | Temperature of lamellar-to-hexagonal transition [3] [°C]
CCCCCC=CCC=CCCCCCCC(O)C(=O)O (stereo not drawn) [182C1] | 386 | 208 | 635 | –
CCCCCC=CCC=CCCCCCCC(OC)C(=O)OC (stereo not drawn) [182H1] | 402 | 267 | 462 | –
CCCCCC=CCC=CCCCCCCC(OC)C(=O)OCC (stereo not drawn) [182I1] | 411 | 240 | 673 | –
CCCCCC=CCC=CCCCCCCC(C)C(=O)OC (stereo not drawn) [182M1] | 362 | 238 | 286 | –
CCCCCC=CCC=CCCCCCCC(Cl)C(=O)OCC (stereo not drawn) [182O1] | 286 | – | 452 | 51.7
CCCCCC=CCC=CCCCCCCC(CO)C(=O)OCC (stereo not drawn) [182Q1] | 328 | – | 293 | –
CCCCCC=CCC=CCCCCCCC(F)C(=O)OCC (stereo not drawn) [182T1] | 391 | 214 | 379 | –
CCCCCC=CCC=CCCCCCCC(OC=O)C(=O)OC (stereo not drawn) [182U1] | 410 | 212 | 255 | –
CCCCCC=CCC=CCCCCCCC(C(=O)OCC)N(OCC)OCC (stereo not drawn) [182W1] | 391 | 246 | 416 | –
CCC=CCC=CCC=CCCCCCCC(O)C(=O)O (stereo not drawn) [183C1] | 289 | – | 281 | –
CCCCCC=CCC=CCC=CCCCC(O)C(=O)O (stereo not drawn) [183C2] | 168 | 379 | 241 | –
CCC=CCC=CCC=CCCCCCCC(O)C(=O)OC (stereo not drawn) [183D1] | 245 | – | 326 | 51.1
CCC=CCC=CCC=CCCCCCCC(O)C(=O)OCC (stereo not drawn) [183E1] | 319 | – | 294 | 49.8
CCCCCC=CCC=CCC=CCCCC(O)C(=O)OCC (stereo not drawn) [183E2] | 193 | – | 243 | 49.3
CCC=CCC=CCC=CCCCCCCC(OC)C(=O)OC (stereo not drawn) [183H1] | 308 | 408 | 319 | –
CCCCCC=CCC=CCC=CCCCC(OC)C(=O)OC (stereo not drawn) [183H2] | 170 | 443 | 219 | –

SMILES | IC50 [1] [µM] | IC50 [2] [µM] | IC50 (lung cancer cells A549) [µM] | Temperature of lamellar-to-hexagonal transition [3] [°C]
CCC=CCC=CCC=CCCCCCCC(OC)C(=O)OCC (stereo not drawn) [183I1] | 274 | 321 | 348 | –
CCCCCC=CCC=CCC=CCCCC(OC)C(=O)OCC (stereo not drawn) [183I2] | 210 | 432 | 276 | –
CCC=CCC=CCC=CCCCCCCC(C)C(=O)OC (stereo not drawn) [183M1] | 407 | 349 | 322 | –
CCCCCC=CCC=CCC=CCCCC(C)C(=O)OC (stereo not drawn) [183M2] | 164 | 407 | 248 | –
CCCCCC=CCC=CCC=CCCCC(Cl)C(=O)OCC (stereo not drawn) [183O2] | 217 | – | 318 | 51.3
CCC=CCC=CCC=CCCCCCCC(CO)C(=O)OCC (stereo not drawn) [183Q1] | 312 | 282 | 273 | –
CCCCCC=CCC=CCC=CCCCC(CO)C(=O)OCC (stereo not drawn) [183Q2] | 205 | 392 | 314 | –
CCC=CCC=CCC=CCCCCCCC(F)C(=O)OCC (stereo not drawn) [183T1] | 290 | 368 | 367 | –
CCCCCC=CCC=CCC=CCCCC(F)C(=O)OCC (stereo not drawn) [183T2] | 216 | 423 | 279 | –
CCC=CCC=CCC=CCCCCCCC(OC=O)C(=O)OC (stereo not drawn) [183U1] | 344 | 343 | 294 | –
CCCCCC=CCC=CCC=CCCCC(OC=O)C(=O)OC (stereo not drawn) [183U2] | 228 | 380 | 287 | –
CCC=CCC=CCC=CCCCCCCC(C(=O)OCC)N(OCC)OCC (stereo not drawn) [183W1] | 311 | – | 352 | –
CCCCCC=CCC=CCC=CCC=CCCC(O)C(=O)O (stereo not drawn) [204C1] | 389 | 287 | 521 | –
CCC=CCC=CCC=CCC=CCC=CCCC(O)C(=O)O (stereo not drawn) [205C1] | 223 | 442 | 325 | –
CCC=CCC=CCC=CCC=CCC=CCC=CCC(O)C(=O)O (stereo not drawn) [226C1] | 210 | 237 | 214 | –

The next lines start with the values.

IC50 [1] [µM] | IC50 [2] [µM] | IC50 (lung cancer cells A549) [µM] | Temperature of lamellar-to-hexagonal transition [3] [°C] | SMILES
203 | 438 | 212 | – | CCCCCC=CCC=CCC=CCCCC(C(=O)OCC)N(OCC)OCC (stereo not drawn) [183W2]
363 | 263 | 398 | – | CCCCCC=CCC=CCC=CCC=CCCC(OC)C(=O)OC (stereo not drawn) [204H1]
315 | 328 | 459 | – | CCCCCC=CCC=CCC=CCC=CCCC(OC)C(=O)OCC (stereo not drawn) [204I1]
285 | 296 | 362 | – | CCCCCC=CCC=CCC=CCC=CCCC(OC(C)=O)C(=O)OC (stereo not drawn) [204J1]
321 | 309 | 375 | – | CCCCCC=CCC=CCC=CCC=CCCC(C)C(=O)OC (stereo not drawn) [204M1]
298 | – | 461 | 49.7 | CCCCCC=CCC=CCC=CCC=CCCC(Cl)C(=O)OCC (stereo not drawn) [204O1]
306 | 324 | 348 | – | CCCCCC=CCC=CCC=CCC=CCCC(CO)C(=O)OCC (stereo not drawn) [204Q1]
317 | 385 | 352 | – | CCCCCC=CCC=CCC=CCC=CCCC(F)C(=O)OCC (stereo not drawn) [204T1]
369 | 263 | 270 | – | CCCCCC=CCC=CCC=CCC=CCCC(OC=O)C(=O)OC (stereo not drawn) [204U1]
311 | 287 | 341 | – | CCCCCC=CCC=CCC=CCC=CCCC(C(=O)OCC)N(OCC)OCC (stereo not drawn) [204W1]
282 | 439 | 290 | – | CCC=CCC=CCC=CCC=CCC=CCCC(OC)C(=O)OC (stereo not drawn) [205H1]
261 | 510 | 351 | – | CCC=CCC=CCC=CCC=CCC=CCCC(OC)C(=O)OCC (stereo not drawn) [205I1]
216 | 462 | 293 | – | CCC=CCC=CCC=CCC=CCC=CCCC(C)C(=O)OC (stereo not drawn) [205M1]
247 | 419 | 365 | – | CCC=CCC=CCC=CCC=CCC=CCCC(CO)C(=O)OCC (stereo not drawn) [205Q1]
233 | 427 | 322 | – | CCC=CCC=CCC=CCC=CCC=CCCC(F)C(=O)OCC (stereo not drawn) [205T1]
272 | 454 | 426 | – | CCC=CCC=CCC=CCC=CCC=CCCC(OC=O)C(=O)OC (stereo not drawn) [205U1]
256 | 443 | 420 | – | CCC=CCC=CCC=CCC=CCC=CCCC(C(=O)OCC)N(OCC)OCC (stereo not drawn) [205W1]
199 | 294 | 247 | – | CCC=CCC=CCC=CCC=CCC=CCC=CCC(OC)C(=O)OC (stereo not drawn) [226H1]
241 | 327 | 298 | – | CCC=CCC=CCC=CCC=CCC=CCC=CCC(OC)C(=O)OCC (stereo not drawn) [226I1]
267 | 306 | 208 | – | CCC=CCC=CCC=CCC=CCC=CCC=CCC(C)C(=O)OC (stereo not drawn) [226M1]
263 | 254 | 252 | – | CCC=CCC=CCC=CCC=CCC=CCC=CCC(CO)C(=O)OCC (stereo not drawn) [226Q1]
199 | 263 | 243 | – | CCC=CCC=CCC=CCC=CCC=CCC=CCC(F)C(=O)OCC (stereo not drawn) [226T1]
